This passage reports IC50 results from patent US9975907B2, “Pyrimidinones as PI3K inhibitors” (Incyte Corporation, priority 2009, dated 2018).

The test system of assay [1] is Pfeiffer cell line (diffuse large B cell lymphoma). The assay can be described thus: Pfeiffer Cell Proliferation Assay. The class given is cell-based. Particulars: 3-4 days, [3H]-thymidine incorporation. How it is done:
Pfeiffer cell line (diffuse large B cell lymphoma) was purchased from ATCC (Manassas, Va.) and maintained in the culture medium recommended (RPMI and 10% FBS). To measure the anti-proliferation activity of the PI3Kδ submittals, the Pfeiffer cells were plated with the culture medium (2×10^3 cells/well/per 200 μl) into 96-well ultra-low binding plates (Corning, Corning, N.Y.), in the presence or absence of a concentration range of test compounds. After 3-4 days, [^3H]-thymidine (1 μCi/well) (PerkinElmer, Boston, Mass.) in PBS was then added to the cell culture for an additional 12 hrs before the incorporated radioactivity was separated by filtration with water through GF/B filters (Packard Bioscience, Meriden, Conn.) and measured by liquid scintillation counting with a TopCount (Packard Bioscience). See Table 3 for data related to compounds of the invention.
In general terms: Uptake of a labelled nucleoside into DNA is a usual measure of proliferation.

Assay [2] concerns purified B cells from human PBMC. As to the kind of experiment: B Cell Proliferation Assay. To be noted: anti-human IgM stimulated, three days, [3H]-thymidine incorporation. The class given is cell-based. How it is done: To acquire B cells, human PBMC were isolated from the peripheral blood of normal, drug free donors by standard density gradient centrifugation on Ficoll-Hypague (GE Healthcare, Piscataway, N.J.) and incubated with anti-CD19 microbeads (Miltenyi Biotech, Auburn, Calif.). The B cells were then purified by positive immunosorting using an autoMacs (Miltenyi Biotech) according to the manufacturer's instruction.
The purified B cells (2×10^5/well/200 μL) were cultured in 96-well ultra-low binding plates (Corning, Corning, N.Y.) in RPMI1640, 10% FBS and goat F(ab′)2 anti-human IgM (10 μg/ml) (Invitrogen, Carlsbad, Calif.), in the presence of different amount of test compounds, for three days. [^3H]-thymidine (1 μCi/well) (PerkinElmer, Boston, Mass.) in PBS was then added to the B cell cultures for an additional 12 hrs before the incorporated radioactivity was separated by filtration with water through GF/B filters (Packard Bioscience, Meriden, Conn.) and measured by liquid scintillation counting with a TopCount (Packard Bioscience). Compounds having and IC^50 value of 10 μM or less are considered active. See Table 2 for data related to compounds of the invention.

The target in the next assay is PI3Kδ (Homo sapiens (Human), UniProt O00329). The assay can be described thus: PI3K Enzyme Assay A2 ([γ-33P]ATP filter plate), PI3Kδ. The class given is biochemical. Particulars: column a, Examples 15, 30 and 44 used Assay A2, 1000 μM ATP. How it is done:
Materials: Lipid kinase substrate, phosphoinositol-4,5-bisphosphate (PIP2), was purchased from Echelon Biosciences (Salt Lake City, Utah). PI3K isoforms α, β, δ and γ were purchased from Millipore (Bedford, Mass.). ATP, MgCh, DTT, EDTA, MOPS and CHAPS were purchased from Sigma-Aldrich (St. Louis, Mo.). The kinase reaction was conducted in clear-bottom 96-well plate from Thermo Fisher Scientific in a final volume of 24 μL. Inhibitors were first diluted serially in DMSO and added to the plate wells before the addition of other reaction components. The final concentration of DMSO in the assay was 0.5%. The PI3K assays were carried out at room temperature in 20 mM MOPS, pH 6.7, 10 mM MgCl2, 5 mM DTT and CHAPS 0.03%. The reaction mixture was prepared containing 50 μM PIP2, kinase and varying concentration of inhibitors. Reactions were initiated by the addition of ATP containing 2.2 μCi [γ-^33P]ATP to a final concentration of 1000 μM. […] Reactions were incubated for 180 min and terminated by the addition of 100 μL of 1 M potassium phosphate pH 8.0, 30 mM EDTA quench buffer. […] After the plate sealing, the radioactivity of the product was determined by scintillation counting on Topcount (Perkin-Elmer). […]

For assay [3], the target named is T1, PI3Kδ (p110δ/p85α) (Homo sapiens (Human), UniProt O00329). As to the kind of experiment: PI3Kδ Scintillation Proximity Assay (Assay A3). The assay is classed as biochemical. Particulars: column b, Assay A3 (SPA), 20 μM ATP. The gist of the method: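 Radiometric SPA: 33P-labelled […] bound to WGA beads after EDTA/ATP quench, counted by scintillation, fitted against log inhibitor for IC50. Reaction: 4 nM PI3Kδ (p110δ/p85α), 20 μM ATP, 20 μM PIP2, pH 6.7 MOPS buffer with MgCl2, DTT, CHAPS, 0.5% DMSO, room temperature, 210 min.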

For a further assay, the target named is PI3Kγ (Homo sapiens (Human), UniProt P48736). As to the kind of experiment: PI3K Enzyme Assay A2 ([γ-33P]ATP filter plate), PI3Kγ. To be noted: Assay A2, 1000 μM ATP. The assay is classed as biochemical. How it is done: Materials: Lipid kinase substrate, phosphoinositol-4,5-bisphosphate (PIP2), was purchased from Echelon Biosciences (Salt Lake City, Utah). PI3K isoforms α, β, δ and γ were purchased from Millipore (Bedford, Mass.). ATP, MgCh, DTT, EDTA, MOPS and CHAPS were purchased from Sigma-Aldrich (St. Louis, Mo.).
(§1) The kinase reaction was conducted in clear-bottom 96-well plate from Thermo Fisher Scientific in a final volume of 24 μL. Inhibitors were first diluted serially in DMSO and added to the plate wells before the addition of other reaction components. The final concentration of DMSO in the assay was 0.5%. The PI3K assays were carried out at room temperature in 20 mM MOPS, pH 6.7, 10 mM MgCl2, 5 mM DTT and CHAPS 0.03%. The reaction mixture was prepared containing 50 μM PIP2, kinase and varying concentration of inhibitors. Reactions were initiated by the addition of ATP containing 2.2 μCi [γ-^33P]ATP to a final concentration of 1000 μM. The final concentration of PI3K isoforms α, β, δ and γ in the assay were 1.3, 9.4, 2.9 and 10.8 nM respectively. Reactions were incubated for 180 min and terminated by the addition of 100 μL of 1 M potassium phosphate pH 8.0, 30 mM EDTA quench buffer. A 100 μL aliquot of the reaction solution was then transferred to 96-well Millipore MultiScreen IP 0.45 μm PVDF filter plate (The filter plate was prewetted with 200 μL 100% ethanol, distilled water, and 1 M potassium phosphate pH 8.0, respectively). The filter plate was aspirated on a Millipore Manifold under vacuum and washed with 18×200 μL wash buffer containing 1 M potassium phosphate pH 8.0 and 1 mM ATP. After drying by aspiration and blotting, the plate was air dried in an incubator at 37° C. overnight. Packard TopCount adapter (Millipore) was then attached to the plate followed with addition of 120 μL Microscint 20 scintillation cocktail (Perkin Elmer) in each well. After the plate sealing, the radioactivity of the product was determined by scintillation counting on Topcount (Perkin-Elmer). IC50 determination was performed by fitting the curve of percent control activity versus the log of the inhibitor concentration using the GraphPad Prism 3.0 software. […] See Table 1 for data related to compounds of the invention.

In the next assay the target is PI3Kβ (Homo sapiens (Human), UniProt P42338). The assay can be described thus: PI3K Enzyme Assay A2 ([γ-33P]ATP filter plate), PI3Kβ. The class given is biochemical. Particulars: Assay A2, 1000 μM ATP. The procedure: as §1, with “Materials: Lipid kinase substrate, phosphoinositol-4,5-bisphosphate (PIP2), was purchased from Echelon Biosciences (Salt Lake City, Utah). PI3K isoforms α, β, δ and γ were purchased from Millipore (Bedford, Mass.). ATP, MgCh, DTT, EDTA, MOPS and CHAPS were purchased from Sigma-Aldrich (St. Louis, Mo.). The kinase” for “The kinase”, “1000 μM. […] Reactions were” for “1000 μM. The final concentration of PI3K isoforms α, β, δ and γ in the assay were 1.3, 9.4, 2.9 and 10.8 nM respectively. Reactions were”

Assay [4] deals with T1, PI3Kδ (p110δ/p85α). The assay can be described thus: AlphaScreen Assay for PI3Kδ (Assay A1). The class given is biochemical. Particulars: column a, 20 μM ATP. An excerpt: PI3-Kinase luminescent assay kit including lipid kinase substrate, D-myo-phosphatidylinositol 4,5-bisphosphate (PtdIns(4,5)P2)D (+)-sn-1,2-di-O-octanoylglyceryl, 3-O-phospho linked (PIP2), biotinylated I(1,3,4,5)P4, PI(3,4,5)P3 Detector Protein, was purchased from Echelon Biosciences (Salt Lake City, Utah). AlphaScreen™ GST Detection Kit including donor and acceptor beads was purchased from PerkinElmer Life Sciences (Waltham, Mass.). PI3Kδ (p110δ/p85α) was purchased from Millipore (Bedford, Mass.). ATP, MgCb, DTT, EDTA, HEPES and CHAPS were purchased from Sigma-Aldrich (St. Louis, Mo.).
AlphaScreen™ Assay for PI3Kδ
The kinase reaction was conducted in 384-well REMP plate from Thermo Fisher Scientific in a final volume of 40 μL. Inhibitors were first diluted serially in DMSO and added to the plate wells before the addition of other reaction components. The final concentration of DMSO in the assay was 2%. The PI3K assays were carried out at room temperature in 50 mM HEPES, pH 7.4, 5 mM MgCl2, 50 mM NaCl, 5 mM DTT and CHAPS 0.04%. Reactions were initiated by the addition of ATP, the final reaction mixture consisted of 20 μM PIP2, 20 μM ATP, 1.2 nM PI3Kδ were incubated for 20 min. 10 μL of reaction mixture was then transferred to 5 μL 50 nM biotinylated I(1,3,4,5)P4 in quench buffer: 50 mM HEPES pH 7.4, 150 mM NaCl, 10 mM EDTA, 5 mM DTT, 0.1% Tween-20, followed with the addition of 10 μL AlphaScreen™ donor and acceptor beads suspended in quench buffer containing 25 nM PI(3,4,5)P3 detector protein. The final concentration of both donor and acceptor beads is […]. After plate sealing, the plate was incubated in a dark location at room temperature for 2 hours. The activity of the product was determined on Fusion-alpha microplate reader (Perkin-Elmer). IC50 determination was performed by fitting the curve of percent control activity versus the log of the inhibitor concentration using the GraphPad Prism 3.0 software.
A general note: Bead proximity is the source of the signal in Alpha formats.

Each structure is given as a SMILES string. Counter-ions that a name gives are not always drawn.

T1 sequence (O00329 whole entry, species assumed): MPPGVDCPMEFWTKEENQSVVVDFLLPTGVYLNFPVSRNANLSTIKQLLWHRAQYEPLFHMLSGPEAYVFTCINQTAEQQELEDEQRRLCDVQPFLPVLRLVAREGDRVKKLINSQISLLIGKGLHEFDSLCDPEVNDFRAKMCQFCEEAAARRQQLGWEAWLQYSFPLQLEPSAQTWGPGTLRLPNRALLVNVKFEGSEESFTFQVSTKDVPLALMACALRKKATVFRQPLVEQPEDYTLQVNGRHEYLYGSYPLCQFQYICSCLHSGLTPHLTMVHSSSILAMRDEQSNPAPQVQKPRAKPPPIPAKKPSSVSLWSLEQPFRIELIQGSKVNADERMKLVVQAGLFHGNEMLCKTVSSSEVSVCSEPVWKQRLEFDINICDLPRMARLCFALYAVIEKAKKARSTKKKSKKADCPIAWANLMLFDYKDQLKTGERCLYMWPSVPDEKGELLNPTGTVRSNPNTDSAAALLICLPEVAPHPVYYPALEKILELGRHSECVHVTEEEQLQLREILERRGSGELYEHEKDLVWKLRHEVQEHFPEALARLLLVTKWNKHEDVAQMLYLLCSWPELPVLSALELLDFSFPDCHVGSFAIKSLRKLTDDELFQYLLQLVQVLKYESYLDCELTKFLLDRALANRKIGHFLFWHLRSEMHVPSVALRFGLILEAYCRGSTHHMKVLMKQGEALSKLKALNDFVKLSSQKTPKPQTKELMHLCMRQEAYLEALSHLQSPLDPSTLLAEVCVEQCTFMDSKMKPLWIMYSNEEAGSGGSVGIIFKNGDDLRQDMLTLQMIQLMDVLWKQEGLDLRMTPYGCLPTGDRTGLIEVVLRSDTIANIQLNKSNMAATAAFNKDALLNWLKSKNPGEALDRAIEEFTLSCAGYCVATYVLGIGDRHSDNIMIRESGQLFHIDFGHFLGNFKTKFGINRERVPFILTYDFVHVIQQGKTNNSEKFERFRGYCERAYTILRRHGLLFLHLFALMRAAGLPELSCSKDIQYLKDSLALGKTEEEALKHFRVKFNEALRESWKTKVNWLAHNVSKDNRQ
T1 sequence (P27986 whole entry partner, species assumed): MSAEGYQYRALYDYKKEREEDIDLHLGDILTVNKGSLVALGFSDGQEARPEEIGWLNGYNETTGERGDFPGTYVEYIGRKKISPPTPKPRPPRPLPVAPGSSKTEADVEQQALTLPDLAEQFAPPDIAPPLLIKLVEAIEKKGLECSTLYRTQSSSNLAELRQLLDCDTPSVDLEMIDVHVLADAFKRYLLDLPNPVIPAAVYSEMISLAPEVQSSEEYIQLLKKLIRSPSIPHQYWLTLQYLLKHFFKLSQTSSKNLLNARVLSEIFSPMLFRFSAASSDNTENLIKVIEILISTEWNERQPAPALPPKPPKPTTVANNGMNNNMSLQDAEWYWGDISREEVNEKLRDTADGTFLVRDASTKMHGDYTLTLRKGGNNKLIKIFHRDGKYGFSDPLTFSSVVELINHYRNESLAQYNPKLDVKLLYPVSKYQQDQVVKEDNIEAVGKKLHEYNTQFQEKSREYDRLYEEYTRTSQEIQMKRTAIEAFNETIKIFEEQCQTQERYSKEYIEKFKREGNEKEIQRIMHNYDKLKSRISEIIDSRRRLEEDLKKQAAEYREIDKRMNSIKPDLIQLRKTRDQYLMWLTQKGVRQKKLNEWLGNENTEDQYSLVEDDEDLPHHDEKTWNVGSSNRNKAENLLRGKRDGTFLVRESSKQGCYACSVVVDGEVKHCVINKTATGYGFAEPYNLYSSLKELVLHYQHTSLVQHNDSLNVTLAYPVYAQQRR
PI3Kγ, sequence (P48736 whole entry, species assumed, canonical isoform): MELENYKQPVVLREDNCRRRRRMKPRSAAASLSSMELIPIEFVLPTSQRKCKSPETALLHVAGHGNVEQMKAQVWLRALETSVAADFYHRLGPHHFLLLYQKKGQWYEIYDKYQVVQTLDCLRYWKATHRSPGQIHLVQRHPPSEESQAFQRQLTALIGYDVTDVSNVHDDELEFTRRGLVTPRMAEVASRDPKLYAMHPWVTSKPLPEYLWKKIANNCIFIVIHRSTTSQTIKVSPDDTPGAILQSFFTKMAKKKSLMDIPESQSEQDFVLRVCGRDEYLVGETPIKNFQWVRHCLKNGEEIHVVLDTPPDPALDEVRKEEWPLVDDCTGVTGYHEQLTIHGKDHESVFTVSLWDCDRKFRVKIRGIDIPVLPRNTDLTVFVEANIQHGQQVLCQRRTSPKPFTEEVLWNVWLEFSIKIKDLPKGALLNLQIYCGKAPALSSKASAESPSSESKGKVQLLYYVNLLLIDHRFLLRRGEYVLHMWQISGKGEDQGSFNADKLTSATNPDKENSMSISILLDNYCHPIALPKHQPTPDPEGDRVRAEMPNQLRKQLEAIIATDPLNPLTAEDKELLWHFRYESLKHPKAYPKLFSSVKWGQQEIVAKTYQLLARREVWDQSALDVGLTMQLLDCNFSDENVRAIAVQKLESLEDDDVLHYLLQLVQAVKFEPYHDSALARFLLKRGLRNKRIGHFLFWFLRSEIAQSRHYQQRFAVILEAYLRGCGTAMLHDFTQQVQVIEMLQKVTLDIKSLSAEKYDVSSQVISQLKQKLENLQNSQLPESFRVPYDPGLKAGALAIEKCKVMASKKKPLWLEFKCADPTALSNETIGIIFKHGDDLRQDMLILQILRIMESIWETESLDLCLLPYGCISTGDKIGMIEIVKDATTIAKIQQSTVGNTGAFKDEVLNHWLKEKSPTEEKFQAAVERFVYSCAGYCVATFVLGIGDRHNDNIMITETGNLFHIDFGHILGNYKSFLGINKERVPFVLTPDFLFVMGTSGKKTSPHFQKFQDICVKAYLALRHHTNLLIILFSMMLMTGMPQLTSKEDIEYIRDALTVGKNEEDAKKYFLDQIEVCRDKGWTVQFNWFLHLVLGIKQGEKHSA
PI3Kβ, sequence (P42338 whole entry, species assumed, canonical isoform): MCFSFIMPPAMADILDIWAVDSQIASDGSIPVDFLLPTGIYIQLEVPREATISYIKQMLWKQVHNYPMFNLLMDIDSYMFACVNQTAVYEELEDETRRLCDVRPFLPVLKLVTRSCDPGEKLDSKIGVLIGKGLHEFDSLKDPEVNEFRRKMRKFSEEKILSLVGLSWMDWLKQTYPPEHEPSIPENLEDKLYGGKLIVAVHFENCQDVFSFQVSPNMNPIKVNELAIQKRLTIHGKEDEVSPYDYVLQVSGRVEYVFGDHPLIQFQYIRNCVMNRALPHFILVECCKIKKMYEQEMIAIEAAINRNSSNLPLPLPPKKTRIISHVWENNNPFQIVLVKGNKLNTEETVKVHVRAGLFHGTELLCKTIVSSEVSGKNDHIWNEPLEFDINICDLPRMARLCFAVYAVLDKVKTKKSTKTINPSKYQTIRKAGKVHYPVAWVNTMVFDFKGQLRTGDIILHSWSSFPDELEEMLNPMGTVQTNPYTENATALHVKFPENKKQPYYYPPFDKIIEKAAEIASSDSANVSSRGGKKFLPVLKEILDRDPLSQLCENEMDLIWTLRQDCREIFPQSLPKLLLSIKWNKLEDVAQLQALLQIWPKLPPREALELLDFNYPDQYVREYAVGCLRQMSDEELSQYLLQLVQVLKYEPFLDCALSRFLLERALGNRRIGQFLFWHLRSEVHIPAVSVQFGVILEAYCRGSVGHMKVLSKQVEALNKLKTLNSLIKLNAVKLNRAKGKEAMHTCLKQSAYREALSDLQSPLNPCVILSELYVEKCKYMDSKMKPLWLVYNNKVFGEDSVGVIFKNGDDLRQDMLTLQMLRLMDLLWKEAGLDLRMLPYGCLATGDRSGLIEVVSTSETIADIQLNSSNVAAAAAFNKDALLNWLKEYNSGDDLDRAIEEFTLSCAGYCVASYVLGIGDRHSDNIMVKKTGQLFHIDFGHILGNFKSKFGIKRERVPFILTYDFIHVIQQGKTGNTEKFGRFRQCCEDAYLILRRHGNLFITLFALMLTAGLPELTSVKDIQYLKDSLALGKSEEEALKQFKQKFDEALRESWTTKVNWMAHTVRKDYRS
PI3Kβ, sequence (P27986 whole entry partner, species assumed, canonical isoform): as the sequence (P27986 whole entry partner, species assumed) above
PI3Kδ, sequence (O00329 whole entry, species assumed, canonical isoform): as the sequence (O00329 whole entry, species assumed) above
PI3Kδ, sequence (P27986 whole entry partner, species assumed, canonical isoform): as the sequence (P27986 whole entry partner, species assumed) above

Turning to `Cc1csc2nc(C(C)Nc3ncnc4[nH]cnc34)c(-c3cc(F)cc(F)c3)c(=O)n12` (single isomer, unassigned) [Example 44, 6-(3,5-difluorophenyl)-3-methyl-7-[1-(9H-purin-6-ylamino)ethyl]-5H-[1,3]thiazolo[3,2-a]pyrimidin-5-one], the IC50 was less than 50 nM in assay [1] (Homo sapiens, Pfeiffer); less than 50 nM in assay [2]; less than 50 nM against PI3Kδ.

Turning to `Cc1cccc2nc(C(C)Nc3ncnc4[nH]cnc34)c(-c3cccc(F)c3)c(=O)n12` (single isomer, unassigned) [Example 71, 3-(3-Fluorophenyl)-6-methyl-2-[1-(9H-purin-6-ylamino)ethyl]-4H-pyrido[1,2-a]pyrimidin-4-one trifluoroacetic acid salt], the IC50 is less than 50 nM in assay [1] (trifluoroacetic acid salt), less than 50 nM against PI3Kδ (p110δ/p85α) [3] and greater than 500 nM at PI3Kγ.

Consider `Cc1csc2nc(C(C)Nc3ncnc4[nH]cnc34)c(-c3cccc(F)c3)c(=O)n12` (stereo not shown) [Example 10, 6-(3-fluorophenyl)-3-methyl-7-[1-(9H-purin-6-ylamino)ethyl]-5H-[1,3]thiazolo[3,2-a]pyrimidin-5-one], for which the IC50 against PI3Kβ and against PI3Kγ was greater than 500 nM each time.

On to `Cc1csc2nc(C(C)Nc3ncnc4[nH]cnc34)c(-c3cc(F)cc(F)c3)c(=O)n12` (stereo not shown) [Example 12, 6-(3,5-difluorophenyl)-3-methyl-7-[1-(9H-purin-6-ylamino)ethyl]-5H-[1,3]thiazolo[3,2-a]pyrimidin-5-one], for which the half-inhibitory concentration (IC50) (against PI3Kδ (p110δ/p85α) [3]; against PI3Kδ (p110δ/p85α) [4]; in assay [2]) was less than 50 nM throughout.

Regarding `Cc1csc2nc([C@H](C)Nc3ncnc4[nH]cnc34)c(-c3cccc(F)c3)c(=O)n12` [Example 15, (S)-7-(1-(9H-purin-6-ylamino)ethyl)-6-(3-fluorophenyl)-3-methyl-5H-thiazolo[3,2-a]pyrimidin-5-one], the half-maximal inhibitory concentration (IC50) on PI3Kβ and on PI3Kγ was greater than 500 nM each time.

As usually defined, the IC50 is the concentration needed to halve the response being measured.
